Measured values published in patent US6737383B1, “Herbicidal oxadiazolidines” (priority 1999, dated 2004).

Columns and labels:
bedstraw = assay: Test B pre/postemergence bedstraw; type: in vivo, Galium aparine
Procedure, shortened: (§1)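 Herbicidal effect was estimated by eye on a ten-point control scale after plants spent twelve to sixteen days in a greenhouse following soil or foliar treatment. Foliar sprays targeted plants at one to four leaves; all doses were formulated in a non-phytotoxic solvent with surfactant.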

blackgrass = assay: Test B pre/postemergence blackgrass; type: in vivo, Alopecurus myosuroides
Procedure, shortened: as §1

surinam grass = assay: Test B pre/postemergence surinam grass; type: in vivo, Brachiaria decumbens
Procedure, shortened: as §1

cocklebur = assay: Test B pre/postemergence cocklebur; type: in vivo, Xanthium strumarium
Procedure, shortened: as §1

corn = assay: Test B pre/postemergence corn; type: in vivo, Zea mays
Procedure, shortened: as §1

crabgrass = assay: Test B pre/postemergence crabgrass; type: in vivo, Digitaria sanguinalis
Procedure, shortened: as §1

giant foxtail = assay: Test B pre/postemergence giant foxtail; type: in vivo, Setaria faberii
Procedure, shortened: as §1

morningglory = assay: Test B pre/postemergence morningglory; type: in vivo, Ipomoea hederacea
Procedure, shortened: as §1

soybean = assay: Test B pre/postemergence soybean; type: in vivo, Glycine max
Procedure, shortened: as §1

velvetleaf = assay: Test B pre/postemergence velvetleaf; type: in vivo, Abutilon theophrasti
Procedure, shortened: as §1

wheat = assay: Test B pre/postemergence wheat; type: in vivo, Triticum aestivum
Procedure, shortened: as §1

wild oat = assay: Test B pre/postemergence wild oat; type: in vivo, Avena fatua
Procedure, shortened: as §1

purple nutsedge = assay: Test B pre/postemergence purple nutsedge; type: in vivo, Cyperus rotundus
Procedure, shortened: as §1

rice = assay: Test B flood test rice; type: in vivo, Oryza sativa
Procedure, shortened: (§2)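 Read-out is a visual response score from 0 (no effect) to 10 (complete control), assigned by comparison with untreated controls. Treatment was applied at the 2-leaf stage, and plants stayed in the greenhouse for twelve to sixteen days before scoring.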

smallflower flatsedge = assay: Test B flood test smallflower flatsedge; type: in vivo, Cyperus difformis
Procedure, shortened: as §2

duck salad = assay: Test B flood test duck salad; type: in vivo, Heteranthera limosa
Procedure, shortened: as §2

bamyardgrass = assay: Test B flood test barnyardgrass; type: in vivo, Echinochloa crus-galli
Procedure, shortened: as §2

[1] = Preemergence, Rate 62 g/ha, scale of 0 to 10 where 0 is no effect and 10 is complete control
[2] = Preemergence, Rate 250 g/ha, scale of 0 to 10 where 0 is no effect and 10 is complete control
[3] = Preemergence, Rate 500 g/ha, scale of 0 to 10 where 0 is no effect and 10 is complete control
[4] = Rate 62 g/ha, Postemergence, scale of 0 to 10 where 0 is no effect and 10 is complete control
[5] = Rate 125 g/ha, Postemergence, scale of 0 to 10 where 0 is no effect and 10 is complete control
[6] = Rate 125 g/ha, Preemergence, scale of 0 to 10 where 0 is no effect and 10 is complete control
[7] = Rate 250 g/ha, Postemergence, scale of 0 to 10 where 0 is no effect and 10 is complete control
[8] = Rate 500 g/ha, Postemergence, scale 0 to 10, 0 no effect, 10 complete control
[9] = Rate 62 g/ha, headed Pre-emergence (flood test species), scale 0 to 10 (0 no effect, 10 complete control)
[10] = Rate 125 g/ha, Pre-emergence, flood test species, scale 0 to 10 where 0 is no effect and 10 is complete control
[11] = Rate 250 g/ha, Pre-emergence, flood-test species, scale 0 to 10, 0 is no effect, 10 is complete control
[12] = Rate 500 g/ha, Pre-emergence, flood test species, scale 0 to 10 (0 no effect, 10 complete control)

Cc1ccccc1-n1c(=O)on(C(=O)N(c2ccc(C(C)(C)C)cc2)C(C)C)c1=O [Compound 270]
0: Bedstraw plant response rating (bedstraw; [1]) | Bedstraw plant response rating (bedstraw; [2]) | Plant response rating, Bedstraw (bedstraw; [3]) | Bedstraw plant response rating (bedstraw; [4]) | Bedstraw plant response rating (bedstraw; [5]) | Bedstraw plant response rating (bedstraw; [6]) | Plant response rating, Bedstraw (bedstraw; [7]) | Bedstraw plant response rating (bedstraw; [8]) | Blackgrass plant response rating (blackgrass; [1]) | Blackgrass plant response rating (blackgrass; [2]) | Plant response rating, Blackgrass (blackgrass; [3]) | Blackgrass plant response rating (blackgrass; [4]) | Blackgrass plant response rating (blackgrass; [5]) | Blackgrass plant response rating (blackgrass; [6]) | Plant response rating, Blackgrass (blackgrass; [7]) | Blackgrass plant response rating (blackgrass; [8]) | B. signalgrass plant response rating (surinam grass; [1]) | B. signalgrass plant response rating (surinam grass; [2]) | Plant response rating, B. signalgrass (surinam grass; [3]) | B. signalgrass plant response rating (surinam grass; [4]) | B. signalgrass plant response rating (surinam grass; [5]) | B. signalgrass plant response rating (surinam grass; [6]) | Plant response rating, B. signalgrass (surinam grass; [7]) | B. signalgrass plant response rating (surinam grass; [8]) | Cocklebur plant response rating (cocklebur; [1]) | Cocklebur plant response rating (cocklebur; [2]) | Plant response rating, Cocklebur (cocklebur; [3]) | Cocklebur plant response rating (cocklebur; [4]) | Cocklebur plant response rating (cocklebur; [5]) | Cocklebur plant response rating (cocklebur; [6]) | Plant response rating, Cocklebur (cocklebur; [7]) | Cocklebur plant response rating (cocklebur; [8]) | Corn plant response rating (corn; [1]) | Corn plant response rating (corn; [2]) | Plant response rating, Corn (corn; [3]) | Corn plant response rating (corn; [4]) | Corn plant response rating (corn; [5]) | Corn plant response rating (corn; [6]) | Plant response rating, Corn (corn; [7]) | Corn plant response rating (corn; [8]) | Crabgrass plant response rating (crabgrass; [1]) | Crabgrass plant response rating (crabgrass; [2]) | Plant response rating, Crabgrass (crabgrass; [3]) | Crabgrass plant response rating (crabgrass; [5]) | Crabgrass plant response rating (crabgrass; [6]) | Plant response rating, Crabgrass (crabgrass; [7]) | Crabgrass plant response rating (crabgrass; [8]) | Giant foxtail plant response rating (giant foxtail; [1]) | Giant foxtail plant response rating (giant foxtail; [2]) | Plant response rating, Giant foxtail (giant foxtail; [3]) | Giant foxtail plant response rating (giant foxtail; [5]) | Giant foxtail plant response rating (giant foxtail; [6]) | Plant response rating, Giant foxtail (giant foxtail; [7]) | Giant foxtail plant response rating (giant foxtail; [8]) | Morningglory plant response rating (morningglory; [1]) | Morningglory plant response rating (morningglory; [2]) | Plant response rating, Morningglory (morningglory; [3]) | Morningglory plant response rating (morningglory; [5]) | Morningglory plant response rating (morningglory; [6]) | Plant response rating, Morningglory (morningglory; [7]) | Morningglory plant response rating (morningglory; [8]) | Soybean plant response rating (soybean; [1]) | Soybean plant response rating (soybean; [2]) | Plant response rating, Soybean (soybean; [3]) | Soybean plant response rating (soybean; [5]) | Soybean plant response rating (soybean; [6]) | Velvetleaf plant response rating (velvetleaf; [1]) | Velvetleaf plant response rating (velvetleaf; [2]) | Plant response rating, Velvetleaf (velvetleaf; [3]) | Velvetleaf plant response rating (velvetleaf; [5]) | Velvetleaf plant response rating (velvetleaf; [6]) | Plant response rating, Velvetleaf (velvetleaf; [7]) | Velvetleaf plant response rating (velvetleaf; [8]) | Wheat plant response rating (wheat; [1]) | Wheat plant response rating (wheat; [2]) | Plant response rating, Wheat (wheat; [3]) | Wheat plant response rating (wheat; [5]) | Wheat plant response rating (wheat; [6]) | Plant response rating, Wheat (wheat; [7]) | Wheat plant response rating (wheat; [8]) | Wild oats plant response rating (wild oat; [1]) | Wild oats plant response rating (wild oat; [2]) | Plant response rating, Wild oats (wild oat; [3]) | Wild oats plant response rating (wild oat; [5]) | Plant response rating, Wild oats (wild oat; [7]) | Wild oats plant response rating (wild oat; [8]) | Nutsedge plant response rating (purple nutsedge; [1]) | Nutsedge plant response rating (purple nutsedge; [2]) | Plant response rating, Nutsedge (purple nutsedge; [3]) | Nutsedge plant response rating (purple nutsedge; [5]) | Nutsedge plant response rating (purple nutsedge; [6]) | Plant response rating, Nutsedge (purple nutsedge; [7]) | Nutsedge plant response rating (purple nutsedge; [8]) | Rice plant response rating (rice; [9]) | Rice plant response rating (rice; [10]) | Rice plant response rating (rice; [11]) | Rice plant response rating (rice; [12]) | S. Flatsedge plant response rating (smallflower flatsedge; [9]) | S. Flatsedge plant response rating (smallflower flatsedge; [10]) | S. Flatsedge plant response rating (smallflower flatsedge; [11]) | S. Flatsedge plant response rating (smallflower flatsedge; [12]) | Ducksalad plant response rating (duck salad; [9]) | Ducksalad plant response rating (duck salad; [10]) | Ducksalad plant response rating (duck salad; [11]) | Ducksalad plant response rating (duck salad; [12]) | Barnyardgrass plant response rating (bamyardgrass; [9]) | Barnyardgrass plant response rating (bamyardgrass; [10]) | Barnyardgrass plant response rating (bamyardgrass; [11]) | Barnyardgrass plant response rating (bamyardgrass; [12])
2: Plant response rating, Soybean (soybean; [7]) | Soybean plant response rating (soybean; [8])
